Test results reported in US20250327028A1, “ENGINEERED PLATELETS AS TARGETED PROTEIN DEGRADERS” (Wisconsin Alumni Research Foundation, priority 2024, published 2025).

What was measured:
[1] = test system: HSP90; test: HAC-B-mediated HSP90 labeling, streptavidin-mediated immunoblot analysis; assay type: cell-based, murine; settings: 4T1 cells, 2 h
Procedure: Identification of HAC-B-mediated HSP90 labeling: Streptavidin-mediated immunoblot analysis: 4T1 cells were seeded in 6-well culture plates with a density of 5×10^4 cells in each well and cultured for 24 h. Following washing with PBS twice, the cells were treated with free HAC-B at the indicated concentrations for 2 h. Then, the cells were washed with PBS and lysed on ice with the RIPA buffer containing PMSF (1 mM) and the phosphatase inhibitor cocktail for 30 min. Next, the lysates were centrifuged at 10,000 g for 10 minutes at 4° C., and the corresponding supernatants were collected, followed by quantification of the total proteins in the supernatant through the BCA assay. Subsequently, the proteins in the supernatant were mixed with ¼ volume of 5× sample buffer formulated by Tris-HCl (pH 6.8, 312.5 mM), sucrose (25%), SDS (10%), bromophenol blue (0.025%), and DTT (250 mM). After incubation for 1 h at room temperature, equal amounts of proteins from different samples ([…]) were loaded into the 10% Bis-Tris gel. The separated proteins were transferred to PVDF membrane before the membranes were blocked with 5% nonfat milk in PBS-T. The PVDF membrane was incubated with streptavidin-HRP at room temperature for 2 h. […] Finally, the bands were treated with ECL western blot substrate and detected by the iBright™ imaging system.

[2] = test system: WT MDA-MB-231 cells; test: In-gel fluorescence detection of NA-647 internalization in WT MDA-MB-231 cells; assay type: cell-based, human
Procedure: In-gel fluorescence detection: In-gel fluorescence was mainly used to investigate the internalization of NeutrAvidin™_647 in HAC-B-treated cancer cells.
Sample preparation: 4T1 or WT MDA-MB-231 cells were seeded in 6-well culture plates with a density of 5×10^4 cells in each well and cultured for 24 h. If HAI pretreatment was performed, the cells were incubated in the HAI-containing blank medium at different concentrations for 2 h and washed with PBS twice before the following treatments. Then, the cells were treated with free HAC-B or the combinations of various ligands at the indicated concentrations for the predetermined time points. Next, the drug-containing medium was removed, and PBS was used to wash the cells twice, followed by incubating the cells in the blank medium containing NeutrAvidin™ DyLight™ 650 (NA-647, Invitrogen/84607) at 0.5 μM for 1 h. Finally, the cells were washed with PBS and lysed on ice with the RIPA buffer containing PMSF (1 mM) and the phosphatase inhibitor cocktail for 30 min. A s for the 4T1 cells cotreated with NA-647 and HAC-B, the cells after 24-h incubation were treated with the blank medium containing NA-647 at 0.5 μM and HAC-B at various concentrations for 2 h before cell lysis.
In-gel fluorescence imaging: After 30-min lysis, the lysates were centrifuged at 10,000 g for 10 minutes at 4° C., and the corresponding supernatants were collected, followed by quantification of the total proteins in the supernatant through the BCA assay. Afterward, the proteins in the supernatant were mixed with ¼ volume of 5× sample buffer formulated by Tris-HCl (pH 6.8, 312.5 mM), sucrose (25%), SDS (10%), bromophenol blue (0.025%), and dithiothreitol (DTT, 250 mM). After incubation for 1 h at room temperature, equal amounts of proteins from different samples ([…] per lane) were loaded into the 12% Bis-Tris gel. After the proteins were separated, the gels were subjected to fluorescence imaging with the ChemiDoc™ MP imaging system (Bio-Rad).

[3] = test system: HSP90; test: HSP90 expression in cancer cells after iHAC treatment; assay type: cell-based; settings: all the cancer cells, various concentrations
Description: Immunoblot analysis: Immunoblot analysis was used to evaluate the expression of BRD4, HSP90, HSP90a, and PD-L1 in 4T1, WT MDA-MB-231, HSP90α-KO MDA-MB-231 or PEA-10 cells after various treatments and also served as the detection method for IP or co-IP experiments. The procedures for preparing IP or co-IP samples were indicated in the relevant experimental parts.
Sample preparation for various cancer cells after free HAC treatment: Various cells, including 4T1, WT MDA-MB-231, HSP90α-KO MDA-MB-231, or PEA-10 cells, were seeded in 6-well culture plates with a density of 5×10^4 cells in each well and cultured for 24 h. Then, if HAI pretreatment was performed, the cells were incubated in the HAI-containing blank medium at different concentrations for 2 h and washed with PBS twice before the following treatments. […]
General procedures for immunoblot analysis: After a 30-min lysis, the lysates were centrifuged at 10,000 g for 10 minutes at 4° C., and the corresponding supernatants were collected, followed by quantification of the total proteins in the supernatant through the BCA assay. […] Finally, the bands were treated with electrochemiluminescence (ECL) western blot substrate, detected by the iBright™ imaging system and quantified with ImageJ software. […]

| SMILES | concentration that labels HSP90 with higher efficiency [1] | biotin labeling of HSP90 (detected by HRP-streptavidin) ([1]; various concentrations) | internalization of NA-647 after optimized pretreatment ([2]; HAC-B pretreatment 5 μM, 4 h) | internalization of extracellular NA-647 ([2]; WT MDA-MB-231 cells, HAC-B pretreatment, then NA-647 0.5 μM 1 h) | HSP90 expression [3] |
| --- | --- | --- | --- | --- | --- |
| N#CCN(C(=O)CCCC[C@@H]1SC[C@@H]2NC(=O)N[C@@H]21)S(=O)(=O)c1ccc(C(=O)NCCCn2c(Sc3cc4c(cc3I)OCO4)nc3c(N)ncnc32)cc1 [HAC-B, N-(3-(6-amino-8-((6-iodobenzo[d][1,3]dioxol-5-yl)thio)-9H-purin-9-yl)propyl)-4-(N-(cyanomethyl)-N-(5-((3aS,4S,6aR)-2-oxohexahydro-1H-thieno[3,4-d]imidazol-4-yl)pentanoyl)sulfamoyl)benzamide] | over 0.8 μM | modified HSP90 within 2 h in a concentration-dependent manner | substantially internalize NA-647 | enhance the internalization of extracellular NA-647 in a time and concentration-dependent manner |  |
| Cc1sc2c(c1C)C(c1ccc(Cl)cc1)=N[C@@H](CC(=O)NCc1cn(CCCC(=O)N(CC#N)S(=O)(=O)c3ccc(C(=O)NCCCn4c(Sc5cc6c(cc5I)OCO6)nc5c(N)ncnc54)cc3)nn1)c1nnc(C)n1-2 [iHAC, (S)—N-(3-(6-amino-8-((6-iodobenzo[d][1,3]dioxol-5-yl)thio)-9H-purin-9-yl)propyl)-4-(N-(4-(4-((2-(4-(4-chlorophenyl)-2,3,9-trimethyl-6H-thieno[3,2-f][1,2,4]triazolo[4,3-a][1,4]diazepin-6-yl)acetamido)methyl)-1H-1,2,3-triazol-1-yl)butanoyl)-N-(cyanomethyl)sulfamoyl)benzamide] |  |  |  |  | maintained a relatively stable HSP90 expression |
